Test results from patent US10544134B2, “4-substituted coumarin derivatives and preparation methods and uses thereof” (SI CHUAN UNIVERSITY, priority 2015, dated 2020).
Read-outs that look alike come from different tables or passages of the source.

Columns and labels:
Assay in all cases: Tumor cell proliferation inhibitory activity test in vitro (MTT)
melanoma A375 = type: cell-based, human; details: read-out: IC50 of compounds for tumor cells, Activity, A375
Description: (§1) Human non-small cell lung cancer cell line NCI-H460, human small cell lung cancer cell line NCI-H446, human hepatocellular carcinoma cell strain HepG2, human colon carcinoma cell strain HCT116, human prostate cancer PC-3, human melanoma A375, colon carcinoma cell HCT-8, breast cancer cell MCF-7, ovarian cancer cell A2780s, drug-resistant ovarian cancer cell A2780/T, drug-resistant colon cancer cell HCT-8/T and doxorubicin-resistant breast cancer cell MCF-7/ADR are obtained from American Type Culture Collection (ATCC) and are cultured and preserved by the cell bank of State Key Laboratory of Biotherapy of Sichuan University. Above tumor cells are routinely cultured in DMEM culture medium containing 10% fetal bovine serum, 100 U·mL-1 penicillin and 100 mg·L−1 streptomycin, and in an incubator at 37° C. and with saturated humidity and 5% CO2 concentration.
(§2) Fill diluted cell suspension in the 96-well plate with 1000-10000 cells per well and incubate it in CO2 incubator overnight.
(§3) Replace with new medium containing various concentrations of compounds to be tested for the test group and replace with fresh medium with equal volume for the control group, each group is arranged with 5 parallel wells and incubated in an incubator at 37° C. and with 5% CO2 concentration.
(§4) Discard the supernatant after 72 hours, add 200 μL freshly prepared serum-free medium containing 0.2 mg/mL MTT into each well, continue to incubate at 37° C. for 1-4 hours, then stop incubation, carefully remove the culture supernatant in the wells and add 200 uL DMSO (dimethyl sulfoxide), oscillate with a miniature ultrasonic oscillator for 15-20 minutes to make the crystal fully dissolved and mixed. Determine OD values using a microplate reader at 570 nm with a reference wavelength of 450 nm.
(§5) Draw curves based on the growth inhibition rate for tumor cells of the same sample with different concentrations to get dose-response curve, so as to calculate IC50. Repeat each test for 3 times, measure IC50 (μM) or nanomolor concentration (nM) of compounds in different tumor cells.

[1] = system: colon carcinoma cell HCT116; type: cell-based, human; details: read-out: IC50 of compounds for tumor cells, Activity, HCT116
Description: as §1, §2, §3, §4, §5

[2] = system: non-small cell lung cancer cell line NCI-H460; type: cell-based, human; details: read-out: IC50 of compounds for tumor cells, Activity, H460
Description: as §1, §2, §3, §4, §5

[3] = system: hepatocellular carcinoma cell HEPG2; type: cell-based, human; details: read-out: IC50 of compounds for tumor cells, Activity, HEPG2
Description: as §1, §2, §3, §4, §5

prostate cancer PC-3 = type: cell-based, human; details: 72 hours, read-out: IC50 of compounds for tumor cells, Activity, PC-3
Description: as §1, §2, §3, §4, §5

breast cancer cell MCF-7 = type: cell-based; details: read-out: IC50 of compounds for tumor cells, Activity, MCF-7
Description: as §1, §2, §3, §4, §5

[4] = Homo sapiens, HCT-116, 72 hours
[5] = Homo sapiens, NCI-H460, 72 hours

Compound	IC50 (melanoma A375; Homo sapiens, A-375, 72 hours) [µM]	IC50 [1, 4] [µM]	IC50 [2, 5] [µM]	IC50 ([3]; Homo sapiens, HepG2, 72 hours) [µM]	IC50 (prostate cancer PC-3; Homo sapiens) [µM]	IC50 (breast cancer cell MCF-7; Homo sapiens, MCF7, 72 hours) [µM]	IC50 (melanoma A375; 72 hours) [µM]	IC50 ([1]; 72 hours) [µM]	IC50 ([2]; 72 hours) [µM]	IC50 ([3]; 72 hours) [µM]	IC50 (prostate cancer PC-3) [µM]	IC50 (breast cancer cell MCF-7; 72 hours) [µM]
COc1ccc(N(C)c2cc(=O)oc3ccccc23)cc1OS(=O)(=O)Cc1ccc(C)cc1 [COUM-55, 4-(N-methyl-N-(4-methoxy-3-(4-methylbenzene) methanesulfonate-benzene)-amino) Coumarin]							0.1 to 5	0.1 to 5	0.1 to 5	0.1 to 5	0.1 to 5	0.1 to 5
COc1ccc2c(-c3ccc(-c4ccccc4OC)o3)cc(=O)oc2c1 [COUM-26, 4-(5-(2-methoxybenzene)furan-2-yl)-7-methoxyl-coumarin]	> 5	> 5	> 5	> 5	> 5	> 5						
COc1ccc2c(N(C)c3cc(OC)c(OC)c(OC)c3)cc(=O)oc2c1 [COUM-44]	0.01 to 0.1	0.01 to 0.1	0.01 to 0.1	0.01 to 0.1	0.01 to 0.1	0.01 to 0.1						
COc1ccccc1-c1ccc(-c2cc(=O)oc3ccccc23)o1 [COUM-18, 4-(5-(2-methoxyphenyl)furan-2-yl)-coumarin]	> 5	> 5	> 5	> 5	> 5	> 5						
4-(N-methyl-N-(4-methoxy-3-((4-ethylbenzene) methoxycarbonyl)-benzene)-amino) Coumarin [COUM-53]							0.1 to 5	0.1 to 5	0.1 to 5	0.1 to 5	0.1 to 5	0.1 to 5
COc1ccc2c(c1)CCCN2c1cc(=O)oc2ccccc12 [COUM-36, 4-(6-methoxy-3,4-dihydroquinoline-1(2H)-yl) coumarin]	> 5	> 5	> 5	> 5	> 5	> 5						

Now from value to compound, other results behind:

IC50 (melanoma A375; Homo sapiens, A-375, 72 hours) [µM]	IC50 [1, 4] [µM]	IC50 [2, 5] [µM]	IC50 ([3]; Homo sapiens, HepG2, 72 hours) [µM]	IC50 (prostate cancer PC-3; Homo sapiens) [µM]	IC50 (breast cancer cell MCF-7; Homo sapiens, MCF7, 72 hours) [µM]	Compound	IC50 (melanoma A375; 72 hours) [µM]	IC50 ([1]; 72 hours) [µM]	IC50 ([2]; 72 hours) [µM]	IC50 ([3]; 72 hours) [µM]	IC50 (prostate cancer PC-3) [µM]	IC50 (breast cancer cell MCF-7; 72 hours) [µM]
0.1 to 5	0.1 to 5	0.1 to 5	0.1 to 5	0.1 to 5	0.1 to 5	COc1ccc2c(c1)CCCN2c1cc(=O)oc2cc(OC)ccc12 [COUM-38, 4-(6-methoxy-3,4-dihydroquinoline-1(211)-yl)-7 methoxycoumarin]						
0.01 to 0.1	0.01 to 0.1	0.01 to 0.1	0.01 to 0.1	0.01 to 0.1	0.01 to 0.1	CCOC(=O)COc1cc(N(C)c2cc(=O)oc3ccccc23)ccc1OC [COUM-45, 4-(N-methyl-N-(4-methoxy-3-(2-ethoxy-2-carbonylethoxy)-benzene)-amino) coumarin]						
> 5	> 5	> 5	> 5	> 5	> 5	COc1ccc2c(-c3ccc(-c4ccc5c(c4)OCO5)s3)cc(=O)oc2c1 [COUM-11, 4-(5-(3,4-(methylenedioxy)benzene)thiophene-2-yl)-7-methoxyl-coumarin]						
> 5	> 5	> 5	> 5	> 5	> 5	COc1ccc2c(-c3ccc(-c4ccc(C)cc4)o3)cc(=O)oc2c1 [COUM-24, 4-(5-(4-methylbenzene)furan-2-yl)-7-methoxyl-coumarin]						
0.1 to 5	0.1 to 5	0.1 to 5	0.1 to 5	0.1 to 5	0.1 to 5	COc1ccc(N(C)c2cc(=O)oc3ccccc23)cc1OC(=O)C(CCSC)NC(=O)OC(C)(C)C (stereo not drawn) [COUM-86, 4-(N-methyl-N-(4-methoxy-3-(Boc-methionine)benzene)amino) Coumarin]						
> 5	> 5	> 5	> 5	> 5	> 5	Cc1ccc(-c2ccc(-c3cc(=O)oc4ccccc34)o2)cc1 [COUM-17, 4-(5-(4-methylphenyl)furan-2-yl)-coumarin]						
